# Earlier results in patent US7834031B2, “Radiolabeled glycine transporter inhibitors” (Merck Sharp & Dohme Corp., priority 2005, dated 2010).
# Key:
# [1] = test system: NMDA receptor activity; settings: rat
# [2] = test system: pre-pulse inhibition; settings: mice; measure of sensory gating
# [3] = test system: symptoms of schizophrenia; settings: high doses, oral, add-on to standard neuroleptic therapy
# [4] = test system: symptoms of schizophrenia; settings: schizophrenia patients poorly responsive to antipsychotic drugs
structure (smiles),measurement,setting,value
"CN(CCC(Oc1ccc(-c2ccccc2)cc1)c1ccc(F)cc1)CC(=O)O (stereo not shown) [NFPS, (N-[3-(4′-fluorophenyl)-3-(4′-phenylphenoxy)propyl])sarcosine]",NMDA receptor activity and NMDA receptor-dependent long-term potentiation,[1],potentiates NMDA receptor activity and NMDA receptor-dependent long-term potentiation
same,pre-pulse inhibition,[2],enhance pre-pulse inhibition
NCC(=O)O [glycine],symptoms of schizophrenia patients,[3],improvement of the symptoms
CNCC(=O)O [sarcosine],"effect on positive, negative and cognitive symptoms",[4],beneficial effect
